Source: patent US6191144A, “Method of using angiotensin converting enzyme inhibitor to stimulate angiogenesis” (priority 1999, dated 2001)
“Also recorded” adds a separate entry of the source.

What was measured:
B2-receptor = B2-receptor antagonist; cited from earlier work
[1] = tested on: Angiotensin Converting Enzyme; test: Tissue ACE activity in thigh muscle homogenate of treated rabbits; format: in vivo, New Zealand White rabbits; details: for mean tissue ACE activity in thigh muscles: additional rabbits treated D10 up to D35; for residual tissue ACE activity, % of non-treated tissue activity: thigh muscle, treated D10 up to D35
Excerpt: Then, they were sacrificed, and muscles harvested for tissue in order to measure tissue ACE activity.
In order to determine the tissue ACE activity, muscles from the additional group were harvested, weighed, and homogenized in PBS. The obtained solution was used as a substrate for the ACE determination kit (Sigma, St. Louis, Mo.), and the result, divided by sample weight, is expressed as international units per gram of tissue (Ul/g).

[2] = tested on: Angiotensin Converting Enzyme; test: Serum ACE activity (Sigma kit, FAPGG substrate) in treated ischemic rabbits; format: in vivo, New Zealand White rabbits; details: for residual ACE activity in serum (D14 serum activity/D10 serum activity): D14, 24 hours after injection, daily s.c. captopril 25 mg or quinaprilat 2 mg; for serum ACE activity as percentage of basal value: D40, after 5 days of discontinuation of injections; for serum ACE inhibition at any time: daily s.c. treatment, inferred from 24 hour trough at D14
Method: The serum ACE activity in the blood samples obtained from ear vein was determined using a kit obtained from Sigma (St. Louis, Mo.). The procedure used is a spectrophotometric method utilizing the synthetic tripeptide substrate N-[3-(2-furyl)acryloyl]-L-phenylalanylglycylglycine (FAPGG). ACE catalyzes hydrolysis of FAPGG to furylacryloylphenylalanine (FAP) and glycylglycine, which results in a decrease in absorbance at a wavelength of 340 nm. The ACE activity in the sample was determined by comparing the sample reaction rate to that obtained with an ACE calibrator.
The efficiency of the treatment is calculated as the percentage of the D10 serum activity according to the ratio: D14 serum activity/D10 serum activity.
For the latter drug, tablets were daily dissolved in saline serum and the resulting suspension was injected. Acetylcholine chloride, serotonin […] sulfate, and sodium nitroprusside were all purchased from Sigma Chemical Co., St. Louis, Mo.

[3] = tested on: rabbit ischemic hindlimb model; test: Angiographic score of collateral development; details: D40; medial thigh
coronary microvessels = details: Greiss reaction (Circulation, 95:176-182); cited from earlier work
[4] = tested on: rabbit ischemic hindlimb model; test: Capillary density in ischemic hindlimb muscles; details: D40; medial thigh muscles of ischemic limb
[5] = tested on: rabbit ischemic hindlimb model; test: Vascular resistance ratio at internal iliac artery after vasoactive agents; details: D40
[6] = tested on: rabbit ischemic hindlimb model; test: Vasomotor reactivity: blood flow ratio in internal iliac artery after vasoactive agents; format: in vivo, New Zealand White rabbits; details: D40; for blood flow ratio (stimulated flow/basal flow), acetylcholine: acetylcholine 1.5 μg/min/kg intra-arterial; for blood flow ratio (stimulated flow/basal flow), nitroprusside: nitroprusside 1.5 μg/min/kg intra-arterial; for blood flow ratio (stimulated flow/basal flow), serotonin: serotonin 1.5 μg/min/kg intra-arterial
Method: After measurement of lower limb blood pressure, a 3 Fr., end-hole infusion catheter (Tracker-i 8 TM, Target Therapeutics, San Jose, Calif.) was inserted into the left common carotid artery and advanced to the abdominal aorta. A 0.018 inch Doppler guidewire (Cardiometrics, Inc., Mountain View, Calif.) was advanced through the 3 Fr. infusion to the proximal segment of the internal iliac artery supplying the ischemic limb.
Vascular reactivity was assessed in this study measuring the variation of blood flow induced by vasodilators in the internal iliac artery of the ischemic limb. Blood flow was calculated from the Doppler measurements, using the formula QD =(πd^2 /4)(0.5×APV), where QD =Doppler-derived time average flow, d=vessel diameter, and APV=time average of the spectral peak velocity (Am. J Physiol., 1994;267:H1263-H1271). The mean velocity was estimated as 0.5×APV by assuming a time-averaged parabolic velocity profile across the vessel. […] The angiographic diameter of main collateral artery was determined using an automated edge-detection system that has been previously validated in vivo (Am. J Physiol., 1994;267:H1263-H1271). […] Center-lines were traced manually for a 10-mm long segment beginning immediately distal to the tip of the Doppler wire. The contours were subsequently detected automatically on the basis of the weighted sum of first and second derivative functions applied to the digitized brightness information. The vascular diameter was then measured at the site of the Doppler sample volume, i.e., 5 mm distal to the wire tip (Am. J Physiol., 1994;267:H1263-H1271). Cross-sectional area was calculated assuming a circular lumen.
The results of calculation for blood flow are expressed as the ratio of blood flow after vasodilator injection to basal blood flow, measured just before the injection.

[7] = tested on: rabbit ischemic hindlimb model; test: Lower-limb blood pressure ratio (ischemic/normal limb); format: in vivo, New Zealand White rabbits; details: D40
Method: (§1) The animal model was a previously described rabbit ischemic hindlimb model (J. Clin. Invest. 93:662-670). […] A longitudinal incision was then performed, extending from the inguinal ligament to a point just proximal to the patella. Through this incision, the femoral artery and each of its branches were dissected free along its entire length. After dissecting the popliteal and saphenous arteries distally, the external iliac artery and all of the above arteries were ligated with 4.0 silk (Ethicon, Sommerville, N.J.). Finally, the femoral artery was completely excised from its proximal origin as a branch of the external iliac artery, to the point distally where it bifurcates to form the saphenous and popliteal arteries. Following excision of the femoral artery, retrograde propagation of thrombus leads to occlusion of the external iliac artery. Blood flow to the ischemic limb consequently becomes dependent upon collateral vessels issuing from the internal iliac artery.
Animals with limb ischemia were randomly divided into 4 groups. […] The ischemic control group consisted of 6 rabbits receiving no medication of any kind.

[8] = tested on: rabbit ischemic hindlimb model; details: D40 vs control
Method: Angiogenesis following resection of femoral artery was assessed at Day 10 (D10) and D40 post-operatively on functional (blood pressure ratio of ischemic to healthy limb, vasoreactivity and resistance) and morphological (angiography and capillary density) criteria.
as §1, with “Blood flow to the ischemic limb consequently becomes dependent upon collateral vessels issuing from the internal iliac artery.” left out
The four groups were investigated at D10 and D40 post-operatively at which time lower limb blood pressure, vasomotor reactivity, and angiographic score were evaluated. […]

[9] = Day 10 (basal value, before treatment)
[10] = Day 40 (5 days after discontinuation)

Compound	mean tissue ACE activity in thigh muscles [1]	residual tissue ACE activity, % of non-treated tissue activity [1]	residual ACE activity in serum (D14 serum activity/D10 serum activity) [2]	serum ACE activity as percentage of basal value [2]	Serum ACE Activity [2, 9]	Serum ACE Activity ([2]; Day 14 (efficiency value))	Serum ACE Activity [2, 10]	serum ACE inhibition at any time [2]	angiographic score [3]	NO accumulation (coronary microvessels)	capillary density [4]	vascular resistance ratio (after injection/basal), acetylcholine [5]	vascular resistance ratio (after injection/basal), nitroprusside [5]	vascular resistance ratio (after injection/basal), serotonin [5]	blood flow ratio (stimulated flow/basal flow), acetylcholine [6]	blood flow ratio (stimulated flow/basal flow), nitroprusside [6]	blood flow ratio (stimulated flow/basal flow), serotonin [6]	ischemic/normal calf systolic blood pressure ratio [7]	stimulation of angiogenesis (functional and morphological criteria) [8]	also measured
NC(N)=NCCC[C@@H](N)C(=O)N[C@@H](CCCN=C(N)N)C(=O)N1CCC[C@H]1C(=O)N1C[C@H](O)C[C@H]1C(=O)NCC(=O)N[C@@H](Cc1cccs1)C(=O)N[C@@H](CO)C(=O)N1Cc2ccccc2C[C@@H]1C(=O)N1[C@H](C(=O)N[C@@H](CCCN=C(N)N)C(=O)O)C[C@@H]2CCCC[C@@H]21 [Icatibant]																				effect on cardiac capillary length density induced by ACE inhibition (B2-receptor): inhibited
C[C@H](CS)C(=O)N1CCC[C@H]1C(=O)O [captopril]	7.65±1.69 Ul/g	61%	42.54±0.03%	92.87±0.04%	55.94 ± 0.75 U/L	23.92 ± 0.60 U/L	51.80 ± 0.80 U/L	higher than 50%	35.03±0.02%	promotion of NO accumulation	147.2±11.9 /mm^2									
C[C@H](N[C@@H](CCc1ccccc1)C(=O)O)C(=O)N1CCC[C@H]1C(=O)O [enalaprilat]										promotion of NO accumulation										
C[C@H](N[C@@H](CCc1ccccc1)C(=O)O)C(=O)N1Cc2ccccc2C[C@H]1C(=O)O [quinaprilat]	1.69±0.70 Ul/g	13%	41.53±0.02%	80.71±0.08%	59.50 ± 1.38 U/L	24.32 ± 0.46 U/L	46.40 ± 0.98 U/L	higher than 50%	51.19%		214.0±6.4 /mm^2	0.32±0.03	0.28±0.02	0.94±0.06	3.06±0.25	2.94±0.24	1.17±0.08	0.86±0.03	more developed angiogenesis; also recorded: improvement; also recorded: stimulates angiogenesis in vivo	Body Weight (Body weight (Table 1); Day 10): 4.19 ± 0.10 kg; Body Weight (Body weight (Table 1); Day 40): 4.54 ± 0.20 kg
CCOC(=O)[C@H](CCc1ccccc1)N[C@@H](C)C(=O)N1[C@H](C(=O)O)C[C@@H]2CCC[C@@H]21 [ramipril]										promotion of NO accumulation										
VEGF									50.88±0.04%		228.8±9.6 /mm^2	0.35±0.03	0.29±0.04	0.77±0.04	2.72±0.22	2.66±0.35	1.19±0.09	0.74±0.03	more developed angiogenesis	
